Laboratory results taken from US7235577B1 (priority 2000, dated 2007).

Columns and labels:
[1] = target: T1, mKv1.1 (Mus musculus, UniProt P16388); test: Selectivity patch clamp, L929 cells expressing mKv1.1; format: cell-based
T1 construct: expressed in transfected cells; host or cells: L929
Procedure: (§1) L929 cells stably expressing mKv1.1, rKv1.2, mKv1.3, and mKv3.1 and MEL cells stably expressing hKv1.5 have been previously described (Grissmer 1994, Mol. Pharmacol. 45: 1227). hKv1.4 and rKv4.2 were stably expressed in LTK (HK1–7). Channel expression was induced 8–12 h before the electrophysiological experiments by 4 μM dexamethasone (Sigma). HEK-293 cells stably expressing the skeletal muscle sodium channel hSkM1 (SCN4A) were generated in the laboratory of Dr. F. Lehmann-Horn. HEK-293 cells stably expressing hSloα were obtained from Dr. Andrew Tinker (Center for Clinical Pharmacology, University College London). L929, MEL, LTK and HEK cells were maintained in DMEM containing 10% heat-inactivated fetal calf serum (Summit Biotechnology, Fort Collins, Colo.) and 250 μg/ml G418 (Life Technologies, Inc.). Rat basophilic leukemia (RBL) cells were maintained in Eagle's minimum essential medium with 2 mM L-glutamine and 10% fetal calf serum. CHO cell were maintained in F12K media (ATCC). Human leukemic Jurkat E6–1 cells were cultured in RPMI 1640 supplemented with 10% fetal calf serum and 1 mM L-glutamine. T84 cells were maintained in a 1:1 mixture of Ham's F12 medium and DMEM with 2.5 mM L-glutamine and 10% fetal calf serum.
(§2) Recordings from the Jurkat SKCa channel were made in K^+ aspartate Ringer (Na^+ was replaced by K^+) with the same internal pipette solution. […]

[2] = target: T2, BK (hSloα) (Homo sapiens, UniProt Q12791); test: Selectivity patch clamp, HEK-293 cells expressing hSloα (BKCa); format: cell-based
T2 construct: expressed in transfected cells; host or cells: HEK-293
Procedure: as §1, §2

[3] = tested on: L929 cells; test: In vitro toxicity, propidium iodide uptake, 48 h; format: cell-based, murine
Procedure: (§3) The in vitro toxicity was performed as follows.

[4] = tested on: MEL cells; test: In vitro toxicity, propidium iodide uptake, 48 h; format: cell-based, murine
Procedure: as §3

[5] = tested on: ten cell lines; test: In vitro toxicity, summary over the ten cell lines; details: at a concentration 100–250 times the Kd for IKCa1 channel block
Procedure: The in vitro toxicity was performed as follows. Jurkat E6-1, MEL, C2F3, NGP, NLF cells and human T-lymphocytes were seeded at 5×10^5 cells/ml, and L929, COS-7, CHO and RBL cells were seeded at 10^5 cells/ml in twelve-well plates. Drug (2 or 5 μM) was added in a final DMSO concentration of 0.1%. After 48 h of incubation at 37° C. with 5% CO2, cells were harvested by sucking them off the plates (suspension cells) or by trypsinization (adherent cell lines). Cells were centrifuged, resuspended in 0.5 ml PBS containing 1 μg/ml propidium iodide (PI), and red fluorescence measured on a FACScan flow cytometer after 20 min, 10^4 cells of every sample being analyzed. The percentage of dead cells was determined by their PI uptake. Two controls for every cell line (one in medium and one with 0.1% DMSO) were also analyzed.

[6] = tested on: human T-lymphocytes; test: In vitro toxicity, propidium iodide uptake, 48 h; format: cell-based
Procedure: as §3

[7] = tested on: CHO cells; test: In vitro toxicity, propidium iodide uptake, 48 h; format: cell-based, Chinese hamster
Procedure: as §3

[8] = target: T3, hKv1.4 (Homo sapiens, UniProt P22459); test: Selectivity patch clamp, LTK cells expressing hKv1.4; format: cell-based
T3 construct: expressed in transfected cells; host or cells: LTK (dexamethasone-induced)
Procedure: as §1, §2

[9] = target: T4, rKv4.2 (Rattus norvegicus, UniProt Q63881); test: Selectivity patch clamp, LTK cells expressing rKv4.2; format: cell-based
T4 construct: expressed in transfected cells; host or cells: LTK (dexamethasone-induced)
Procedure: as §1, §2

[10] = target: T5, Jurkat-SK (Homo sapiens, UniProt Q9H2S1); test: Selectivity patch clamp, Jurkat SKCa channel; format: cell-based
T5 construct: endogenous in cells; host or cells: Jurkat E6-1
Procedure: as §1, §2

[11] = target: T6, hKv1.5 (Homo sapiens, UniProt P22460); test: Selectivity patch clamp, MEL cells expressing hKv1.5; format: cell-based
T6 construct: expressed in transfected cells; host or cells: MEL
Procedure: as §1, §2

[12] = tested on: CF-1 BR mice; test: ISO acute systemic toxicity study; details: single i.v. 0.5 mg/kg
Procedure: An ISO acute systemic toxicity study was performed in CF-1 BR mice (17–19 g) according to the guidelines of the United States Pharmacopeia XXII. […] Five control mice were injected with an equal volume of the vehicle. The mice were weighed at the beginning of the study and at its termination.

[13] = Hydrolytic stability by HPLC; details: for stability against hydrolysis: over 72 h
Procedure: A Waters 590 liquid chromatograph with a Waters 746 integrator and a Waters 486 UVN is detector, and a 25 cm Lichrospher RP18 column (5-μM particle size) was used. The mobile phase consisted of K2HPO4 25 mM, KH2PO4 30 mM, methanol at 262:13:725. The chromatographic separation was performed at 20° C. with a flow rate of 1.0 ml/min, the absorbance of the elluent was monitored at 210 nm.
Hydrolysis profiles (10 μM compound with 20% acetonitrile) were carried out in Soerensen phosphate buffer (pH 7.4 and pH 5.0) in a total volume of 10 ml. 100 μl samples were collected 0, 1, 2, 3, 4, 5, 24, 48 and 72 hours after incubation, with shaking, in a waterbath at 37° C. and manually injected into the HPLC over Rheodyne 7125 system. For profiles at pH 1.0 artificial stomach fluid (DAB 9), containing 2 g NaCl, 3,2 g pepsin and 80 ml 1 M HCL in 1.0 L of water was used. After 0, 1 and 2 hours 400 μl of sample were collected and extracted three times with 500 μl of ethyl ether by vortexing. The combined extracts were than evaporated to dryness by passing nitrogen through the solution. The residue was than dissolved in 400 μl of mobile phase of which […] were injected in the HPLC.

[14] = target: Jurkat-CRAC; test: Selectivity patch clamp, Jurkat CRAC channels; format: cell-based, human; details: monovalent currents with Na+ as charge carrier
Procedure: as §1, §2

[15] = target: T7, rKv1.2 (Rattus norvegicus, UniProt P63142); test: Selectivity patch clamp, L929 cells expressing rKv1.2; format: cell-based
T7 construct: expressed in transfected cells; host or cells: L929
Procedure: as §1, §2

T2 sequence (Q12791 whole entry): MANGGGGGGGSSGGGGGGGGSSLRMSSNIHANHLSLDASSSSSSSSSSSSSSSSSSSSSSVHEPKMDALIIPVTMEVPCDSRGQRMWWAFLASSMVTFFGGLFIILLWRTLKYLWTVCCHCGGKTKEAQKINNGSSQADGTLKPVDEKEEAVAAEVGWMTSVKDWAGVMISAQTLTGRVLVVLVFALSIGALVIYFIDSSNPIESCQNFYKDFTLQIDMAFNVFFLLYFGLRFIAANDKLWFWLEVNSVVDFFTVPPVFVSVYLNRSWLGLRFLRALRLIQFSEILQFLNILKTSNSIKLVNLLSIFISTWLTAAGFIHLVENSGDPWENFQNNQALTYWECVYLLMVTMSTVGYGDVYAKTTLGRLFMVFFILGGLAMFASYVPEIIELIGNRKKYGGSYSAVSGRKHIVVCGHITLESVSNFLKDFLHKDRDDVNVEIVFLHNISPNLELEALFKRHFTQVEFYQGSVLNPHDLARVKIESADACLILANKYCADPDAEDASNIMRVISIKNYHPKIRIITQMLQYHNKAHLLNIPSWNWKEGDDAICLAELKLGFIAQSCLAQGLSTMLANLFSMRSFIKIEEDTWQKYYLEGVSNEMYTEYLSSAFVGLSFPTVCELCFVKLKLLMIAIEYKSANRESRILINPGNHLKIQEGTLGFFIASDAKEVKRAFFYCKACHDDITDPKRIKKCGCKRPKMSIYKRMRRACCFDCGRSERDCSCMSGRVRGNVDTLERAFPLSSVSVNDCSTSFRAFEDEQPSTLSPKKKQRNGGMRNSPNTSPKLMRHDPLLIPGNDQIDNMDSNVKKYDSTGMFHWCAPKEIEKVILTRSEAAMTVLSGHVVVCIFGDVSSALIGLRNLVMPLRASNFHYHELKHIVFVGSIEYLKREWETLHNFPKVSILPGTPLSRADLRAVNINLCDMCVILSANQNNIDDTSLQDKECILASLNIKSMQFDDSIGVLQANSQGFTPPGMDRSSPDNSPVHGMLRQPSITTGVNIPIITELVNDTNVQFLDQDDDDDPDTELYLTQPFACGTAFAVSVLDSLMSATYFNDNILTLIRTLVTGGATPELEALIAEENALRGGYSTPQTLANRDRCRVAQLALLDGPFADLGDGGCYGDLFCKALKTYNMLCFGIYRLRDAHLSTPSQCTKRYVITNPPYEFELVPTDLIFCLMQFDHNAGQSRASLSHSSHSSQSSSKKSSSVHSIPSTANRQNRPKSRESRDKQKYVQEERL
T6 sequence (P22460 whole entry): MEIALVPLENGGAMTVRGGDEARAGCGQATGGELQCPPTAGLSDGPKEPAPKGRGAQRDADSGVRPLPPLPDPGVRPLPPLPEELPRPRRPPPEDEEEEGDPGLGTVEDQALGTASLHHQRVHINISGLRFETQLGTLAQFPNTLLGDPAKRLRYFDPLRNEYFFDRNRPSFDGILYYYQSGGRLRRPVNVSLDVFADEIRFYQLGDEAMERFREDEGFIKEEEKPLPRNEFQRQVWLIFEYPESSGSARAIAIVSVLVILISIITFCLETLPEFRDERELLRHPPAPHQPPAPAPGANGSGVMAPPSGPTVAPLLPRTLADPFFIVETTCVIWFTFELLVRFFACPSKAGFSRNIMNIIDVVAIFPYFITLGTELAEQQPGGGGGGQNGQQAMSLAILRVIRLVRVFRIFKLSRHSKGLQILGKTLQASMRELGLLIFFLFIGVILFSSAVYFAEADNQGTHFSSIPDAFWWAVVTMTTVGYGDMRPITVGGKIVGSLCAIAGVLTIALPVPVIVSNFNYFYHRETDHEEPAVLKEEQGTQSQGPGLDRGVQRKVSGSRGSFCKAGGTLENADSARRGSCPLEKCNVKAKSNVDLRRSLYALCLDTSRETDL
T5 sequence (Q9H2S1 whole entry): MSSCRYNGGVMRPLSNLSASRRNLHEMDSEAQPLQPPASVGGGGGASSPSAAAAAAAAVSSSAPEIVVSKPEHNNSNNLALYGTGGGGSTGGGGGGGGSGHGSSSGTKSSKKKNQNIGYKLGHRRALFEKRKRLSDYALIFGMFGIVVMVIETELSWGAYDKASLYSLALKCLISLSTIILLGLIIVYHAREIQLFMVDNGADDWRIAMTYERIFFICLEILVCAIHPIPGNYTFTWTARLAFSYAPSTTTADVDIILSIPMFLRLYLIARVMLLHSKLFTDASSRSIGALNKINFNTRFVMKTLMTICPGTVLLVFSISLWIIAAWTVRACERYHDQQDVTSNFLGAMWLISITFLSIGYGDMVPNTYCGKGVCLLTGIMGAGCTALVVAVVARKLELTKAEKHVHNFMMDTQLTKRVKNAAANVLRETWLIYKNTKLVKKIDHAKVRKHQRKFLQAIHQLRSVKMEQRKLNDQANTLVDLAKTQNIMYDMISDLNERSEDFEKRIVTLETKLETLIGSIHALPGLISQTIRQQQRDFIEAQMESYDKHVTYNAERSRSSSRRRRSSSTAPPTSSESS
T4 sequence (Q63881 whole entry): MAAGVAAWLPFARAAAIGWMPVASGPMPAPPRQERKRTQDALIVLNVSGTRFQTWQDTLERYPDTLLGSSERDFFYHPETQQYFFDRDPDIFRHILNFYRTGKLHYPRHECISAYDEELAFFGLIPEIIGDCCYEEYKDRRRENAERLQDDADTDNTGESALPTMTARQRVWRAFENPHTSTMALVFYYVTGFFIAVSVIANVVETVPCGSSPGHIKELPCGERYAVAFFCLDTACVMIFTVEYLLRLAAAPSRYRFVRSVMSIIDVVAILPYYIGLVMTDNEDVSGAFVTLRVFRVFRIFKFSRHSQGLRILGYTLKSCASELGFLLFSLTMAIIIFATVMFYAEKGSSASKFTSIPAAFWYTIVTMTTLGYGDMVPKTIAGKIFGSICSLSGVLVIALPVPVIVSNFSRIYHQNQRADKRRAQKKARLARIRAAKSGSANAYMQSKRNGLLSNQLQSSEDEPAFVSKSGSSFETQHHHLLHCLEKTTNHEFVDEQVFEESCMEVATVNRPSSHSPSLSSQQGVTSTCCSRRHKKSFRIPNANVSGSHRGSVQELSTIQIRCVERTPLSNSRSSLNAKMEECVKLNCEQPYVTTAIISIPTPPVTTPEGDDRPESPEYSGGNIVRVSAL
T3 sequence (P22459 whole entry): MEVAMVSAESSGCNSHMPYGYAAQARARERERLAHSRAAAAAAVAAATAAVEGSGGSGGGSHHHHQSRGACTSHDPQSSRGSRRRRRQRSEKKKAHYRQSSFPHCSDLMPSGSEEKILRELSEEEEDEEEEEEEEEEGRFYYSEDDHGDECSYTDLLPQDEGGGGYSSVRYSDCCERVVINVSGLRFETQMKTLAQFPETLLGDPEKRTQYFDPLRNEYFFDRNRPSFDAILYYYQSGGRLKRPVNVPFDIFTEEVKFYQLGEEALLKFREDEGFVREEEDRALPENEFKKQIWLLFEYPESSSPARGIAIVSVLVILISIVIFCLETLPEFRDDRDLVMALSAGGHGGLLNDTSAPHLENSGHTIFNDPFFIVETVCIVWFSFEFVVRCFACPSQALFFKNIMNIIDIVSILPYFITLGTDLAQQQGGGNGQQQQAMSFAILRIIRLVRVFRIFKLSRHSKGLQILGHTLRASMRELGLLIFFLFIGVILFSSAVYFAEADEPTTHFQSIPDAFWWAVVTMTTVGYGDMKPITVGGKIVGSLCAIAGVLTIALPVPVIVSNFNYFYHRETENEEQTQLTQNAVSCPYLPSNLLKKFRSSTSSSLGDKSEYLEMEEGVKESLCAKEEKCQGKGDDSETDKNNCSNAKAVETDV
T1 sequence (P16388 whole entry): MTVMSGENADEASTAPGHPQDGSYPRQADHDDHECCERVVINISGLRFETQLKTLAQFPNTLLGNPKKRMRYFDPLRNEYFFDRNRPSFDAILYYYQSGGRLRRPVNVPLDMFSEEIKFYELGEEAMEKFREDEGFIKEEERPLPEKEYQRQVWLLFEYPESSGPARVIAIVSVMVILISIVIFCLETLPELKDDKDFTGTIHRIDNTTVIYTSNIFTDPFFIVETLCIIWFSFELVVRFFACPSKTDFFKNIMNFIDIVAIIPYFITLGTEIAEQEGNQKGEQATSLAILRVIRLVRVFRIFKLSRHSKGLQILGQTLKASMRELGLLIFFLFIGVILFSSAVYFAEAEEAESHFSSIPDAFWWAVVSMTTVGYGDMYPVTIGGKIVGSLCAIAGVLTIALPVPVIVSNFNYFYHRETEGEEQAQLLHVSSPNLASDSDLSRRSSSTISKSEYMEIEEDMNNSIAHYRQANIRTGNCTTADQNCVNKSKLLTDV
T7 sequence (P63142 whole entry): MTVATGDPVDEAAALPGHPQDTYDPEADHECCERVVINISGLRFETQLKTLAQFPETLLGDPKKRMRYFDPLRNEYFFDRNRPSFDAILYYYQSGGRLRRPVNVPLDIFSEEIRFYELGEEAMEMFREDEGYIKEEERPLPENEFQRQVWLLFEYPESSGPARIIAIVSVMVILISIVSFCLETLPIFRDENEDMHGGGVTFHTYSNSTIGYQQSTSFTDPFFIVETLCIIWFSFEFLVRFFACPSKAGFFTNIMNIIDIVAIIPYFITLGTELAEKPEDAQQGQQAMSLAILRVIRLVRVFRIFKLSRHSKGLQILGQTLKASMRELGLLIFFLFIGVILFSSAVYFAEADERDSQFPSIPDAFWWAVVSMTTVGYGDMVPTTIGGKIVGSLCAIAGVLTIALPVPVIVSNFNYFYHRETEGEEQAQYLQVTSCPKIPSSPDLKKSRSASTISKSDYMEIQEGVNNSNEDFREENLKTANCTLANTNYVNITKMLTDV

Clc1ccccc1C(c1ccccc1)(c1ccccc1)n1cccn1 [Compound T34, 1-[(2-Chlorophenyl)diphenylmethyl]-1H-pyrazole]
Kd [1]: 9.5 ± 1 µM
Kd [2]: 25 ± 1.8 µM
percentage of dead cells (PI uptake) ([3]; 2 μM): 4.6%
percentage of dead cells (PI uptake) ([3]; 5 μM): 7.5%
percentage of dead cells (PI uptake) ([4]; 2 μM): 6.2%
percentage of dead cells (PI uptake) ([4]; 5 μM): 5.8%
cell viability in the ten cell lines examined [5]: did not reduce cell viability
percentage of dead cells (PI uptake) ([6]; 2 μM): 6.2%
percentage of dead cells (PI uptake) ([6]; 5 μM): 7.0%
percentage of dead cells (PI uptake) ([7]; 2 μM): 5.6%
percentage of dead cells (PI uptake) ([7]; 5 μM): 4.7%
Kd [8]: 7.5 ± 0.41 µM
Kd [9]: 6 ± 0.87 µM
Kd [10]: 23 ± 2 µM
Kd [11]: 7 ± 0.62 µM
clinical appearance ([12]; 7-day study): all animals appeared clinically normal
mortality ([12]; 7-day study): no mortality
body weight on day 1 ([12]; day 1): 17.8 g
body weight on day 7 ([12]; day 7): 27.0 g
half-life ([13]; artificial stomach fluid (DAB 9), pH 1): ~45 min
stability against hydrolysis ([13]; pH 5.0, 37° C.): completely stable
stability against hydrolysis ([13]; pH 7.4, 37° C.): completely stable
stability against hydrolysis ([13]; pH 10): completely stable
Block of Jurkat-CRAC (Ca) [14]: no effect at 10 μM
Kd [15]: 4.5 ± 0.52 µM
